Our source for the Ki, Selectivity and Kb values is ChEMBL document CHEMBL1131394, “Design and synthesis of N-alkylated saccharins as selective alpha-1a adrenergic receptor antagonists” (Bioorg Med Chem Lett, 1998).

Assay [1] has as its target T1, Alpha-1A adrenergic receptor (Homo sapiens, UniProt P35348).
T1 sequence (P35348 whole entry): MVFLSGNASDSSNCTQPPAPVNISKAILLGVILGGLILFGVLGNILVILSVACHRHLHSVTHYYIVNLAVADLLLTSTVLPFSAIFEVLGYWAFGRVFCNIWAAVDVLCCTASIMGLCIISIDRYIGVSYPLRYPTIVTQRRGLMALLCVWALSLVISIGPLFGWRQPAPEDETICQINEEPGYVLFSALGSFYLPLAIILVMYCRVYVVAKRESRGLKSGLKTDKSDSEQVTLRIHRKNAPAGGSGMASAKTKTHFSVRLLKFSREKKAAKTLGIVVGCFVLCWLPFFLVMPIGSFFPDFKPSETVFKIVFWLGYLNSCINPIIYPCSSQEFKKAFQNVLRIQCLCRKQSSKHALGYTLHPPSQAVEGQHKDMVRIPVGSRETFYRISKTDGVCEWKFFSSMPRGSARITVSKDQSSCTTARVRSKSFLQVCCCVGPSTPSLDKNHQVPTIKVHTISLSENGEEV
Briefly: Ability to displace beta ([125I]-iodo-4-hydroxyphenyl)-ethylaminomethyl tetralone from human cloned Alpha-1a adrenergic receptor stably expressed in CHO cells. The assay is classed as cell-based.

The target in assay [2] is T2, Alpha-1B adrenergic receptor (Homo sapiens, UniProt P35368).
T2 sequence (P35368 whole entry): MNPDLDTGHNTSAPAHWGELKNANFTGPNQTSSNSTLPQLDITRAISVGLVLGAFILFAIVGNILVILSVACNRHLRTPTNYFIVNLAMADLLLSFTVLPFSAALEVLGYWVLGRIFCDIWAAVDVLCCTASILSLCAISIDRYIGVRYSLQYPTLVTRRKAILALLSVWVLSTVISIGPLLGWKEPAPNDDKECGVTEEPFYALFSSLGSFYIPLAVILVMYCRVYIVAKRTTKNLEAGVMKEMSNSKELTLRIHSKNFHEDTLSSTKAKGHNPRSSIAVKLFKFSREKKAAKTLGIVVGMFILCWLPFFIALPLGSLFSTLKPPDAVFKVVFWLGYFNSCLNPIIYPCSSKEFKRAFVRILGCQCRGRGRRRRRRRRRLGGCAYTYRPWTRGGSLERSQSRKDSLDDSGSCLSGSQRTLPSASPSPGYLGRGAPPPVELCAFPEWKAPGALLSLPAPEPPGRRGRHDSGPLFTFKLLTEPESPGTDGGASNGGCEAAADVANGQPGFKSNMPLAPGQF
The experiment in a line: Ability to displace beta ([125I]-iodo-4-hydroxyphenyl)-ethylamino methyl tetralone from human cloned Alpha-1b adrenergic receptor stably expressed in LM cells. It is filed as cell-based.

Assay [3] concerns the target T3, Alpha-1D adrenergic receptor (Homo sapiens, UniProt P25100).
T3 sequence (P25100 whole entry): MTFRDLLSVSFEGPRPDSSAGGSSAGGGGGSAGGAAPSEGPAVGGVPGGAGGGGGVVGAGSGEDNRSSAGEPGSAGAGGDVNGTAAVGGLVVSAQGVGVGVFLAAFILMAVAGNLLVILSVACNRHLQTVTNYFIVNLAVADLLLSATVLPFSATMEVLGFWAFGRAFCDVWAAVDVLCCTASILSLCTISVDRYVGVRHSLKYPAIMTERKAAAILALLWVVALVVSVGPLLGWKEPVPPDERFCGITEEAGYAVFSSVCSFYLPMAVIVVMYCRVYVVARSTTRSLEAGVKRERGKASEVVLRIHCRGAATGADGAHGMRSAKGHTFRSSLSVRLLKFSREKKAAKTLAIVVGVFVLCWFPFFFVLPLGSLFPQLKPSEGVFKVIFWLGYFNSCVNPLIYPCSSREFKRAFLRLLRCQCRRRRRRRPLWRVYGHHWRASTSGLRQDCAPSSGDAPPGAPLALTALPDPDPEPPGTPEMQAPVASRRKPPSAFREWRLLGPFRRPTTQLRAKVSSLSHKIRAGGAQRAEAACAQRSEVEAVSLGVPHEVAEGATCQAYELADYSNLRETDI
The experiment in a line: Ability to displace beta ([125I]-iodo-4-hydroxyphenyl) ethylamino methyl tetralone from human cloned Alpha-1d adrenergic receptor stably expressed in HEK cells. It is filed as cell-based, HEK293.

The target of assay [4] is T1, Alpha-1A adrenergic receptor. The experiment in a line: Ability to displace beta ([125I]-iodo-4-hydroxyphenyl)-ethylamino methyl tetralone from human cloned Alpha-1a adrenergic receptor stably expressed in Chinese Hamster Ovary (CHO) cells. It is filed as cell-based.
The target of assay [5] is T4, Alpha adrenergic receptor (1a and 1d) (Homo sapiens) (UniProt P35348+P25100). Briefly: Selectivity towards alpha-1a over alpha1d receptor; 5.5x. The assay is classed as protein assay.
In assay [6] the target is T5, Adrenergic receptors; alpha-1 A & B (Homo sapiens) (UniProt P35348+P35368). Briefly: Selectivity towards Alpha-1A over alpha-1b receptor; 3.3x. The assay is classed as protein assay.
In assay [7] the target is T1, Alpha-1A adrenergic receptor. The experiment in a line: Ability to displace beta ([125I]-iodo-4-hydroxyphenyl)-ethylaminomethyl tetralone from human cloned Alpha-1a adrenergic receptor stably expressed in Chinese Hamster Ovary (CHO) cells. The assay is classed as cell-based.
Assay [8] has as its target T2, Alpha-1B adrenergic receptor. The experiment in a line: Ability to displace beta ([125I]-iodo-4-hydroxyphenyl)-ethylamino methyl tetralone from human cloned Alpha-1b adrenergic receptor stably expressed in COS-7 cells. It is filed as cell-based.
The target in assay [9] is T1, Alpha-1A adrenergic receptor. Briefly: Ability to displace beta ([125I]-iodo-4-hydroxyphenyl)-ethylaminomethyl tetralone from human cloned Alpha-1a adrenergic receptor stably expressed in COS-7 cells. It is filed as cell-based.
Assay [10] concerns the target T3, Alpha-1D adrenergic receptor. The experiment in a line: Ability to displace beta ([125I]-iodo-4-hydroxyphenyl)-ethylamino methyl tetralone from human cloned Alpha-1d adrenergic receptor stably expressed in COS-7 cells. It is filed as cell-based.
Assay [11] has as its system Canis familiaris. Briefly: In vivo inhibitory activity against […]-induced increase in diastolic blood pressure (DBP) in dog. The assay is classed as functional, Canis lupus familiaris, Artery.
For assay [12], the system named is Canis familiaris. The experiment in a line: In vivo inhibitory activity against […]-induced increase in urethral pressure (IUP) in dog. It is filed as functional, Canis lupus familiaris, Urethra.
Assay [13] has as its target T4, Alpha adrenergic receptor (1a and 1d) (Homo sapiens). Briefly: Selectivity towards Alpha-1A over alpha-1d receptor; 266x. The assay is classed as protein assay.
In assay [14] the target is T5, Adrenergic receptors; alpha-1 A & B (Homo sapiens). Briefly: Selectivity towards Alpha-1A over alpha-1b receptor; 188x. The assay is classed as protein assay.
For assay [15], the target named is T1, Alpha-1A adrenergic receptor. The experiment in a line: Ability to displace beta ([125I]-iodo-4-hydroxyphenyl)-ethylaminomethyl tetralone from human cloned Alpha-1a adrenergic receptor stably expressed in CHO cells.
Assay [16] concerns the target T5, Adrenergic receptors; alpha-1 A & B (Homo sapiens). The experiment in a line: Selectivity towards Alpha-1A over alpha-1b receptor; 5x. It is filed as protein assay.
Assay [17] addresses T4, Alpha adrenergic receptor (1a and 1d) (Homo sapiens). The experiment in a line: Selectivity towards Alpha-1A over alpha1d receptor; 11x. It is filed as protein assay.
Assay [18] concerns the target T5, Adrenergic receptors; alpha-1 A & B (Homo sapiens). The experiment in a line: Selectivity towards Alpha-1A over alpha-1b receptor; 11x. The assay is classed as protein assay.
Assay [19] addresses T4, Alpha adrenergic receptor (1a and 1d) (Homo sapiens). Briefly: Selectivity towards Alpha-1A over alpha-1d receptor; 56x. The assay is classed as protein assay.
The target is the same in assay [20]. The experiment in a line: Selectivity towards Alpha-1A over alpha1d receptor; 208x. It is filed as protein assay.
In assay [21] the target is T5, Adrenergic receptors; alpha-1 A & B (Homo sapiens). The experiment in a line: Selectivity towards alpha-1a over alpha-1b receptor; 97x. It is filed as protein assay.

With `O=C1c2ccc([N+](=O)[O-])cc2S(=O)(=O)N1CCCCN1CCC(n2c(=O)oc3ccccc32)CC1`, the Ki in assay [1] was 0.16 nM; in assay [2], 75 nM; in assay [3] it was 75 nM.

Regarding `O=C1c2ccccc2S(=O)(=O)N1CCCCN1CCC(n2c(=O)oc3cc(F)ccc32)CC1`, the Ki turned out to be 0.084 nM in assay [4], 7.3 nM in [2] and 25 nM in assay [3].

In the case of `Cc1ccc2oc(=O)n(C3CCN(CCCCN4C(=O)c5ccccc5S4(=O)=O)CC3)c2c1`, the Ki in assay [4] is 1.2 nM; in [2], 37 nM; in [3], 136 nM.

For `COc1ccc2c(c1)oc(=O)n2C1CCN(CCCCN2C(=O)c3ccccc3S2(=O)=O)CC1`, the Selectivity in assay [5] was found to be 5.5; in assay [6], 3.3. For the same molecule, the Ki in [4] stood at 499 nM; in assay [2], 1650 nM; in assay [3] it was 2750 nM.

For the molecule `COc1ccc2c(c1)C(=O)N(CCCCN1CCC(n3c(=O)oc4ccccc43)CC1)S2(=O)=O`, the Ki in assay [2] turned out to be 15 nM; in assay [3], 76 nM; in assay [7] it was 0.064 nM.

For the molecule `Cc1cccc2oc(=O)n(C3CCN(CCCCN4C(=O)c5ccccc5S4(=O)=O)CC3)c12`, the Ki in [4] was found to be 147 nM; in assay [2] it was 1150 nM; in assay [3] it was 1020 nM.

For `CS(=O)(=O)c1ccc2c(c1)S(=O)(=O)N(CCCCN1CCC(n3c(=O)oc4ccccc43)CC1)C2=O`, the figures for the Ki in assay [8], in assay [9] and in assay [10] were 6.8 nM, 2.4 nM and 210 nM, respectively.

In the case of `O=C1c2cc(Cl)ccc2S(=O)(=O)N1CCCCN1CCC(n2c(=O)oc3ccccc32)CC1`, the Kb in the assay on Canis familiaris [11] turned out to be 156 µg/kg; with Canis familiaris [12], 5.5 µg/kg. For the same molecule, the Ki in [3] was 85 nM.

Turning to `O=C1c2ccccc2C(=O)N1CCCCN1CCC(n2c(=O)[nH]c3ccccc32)CC1`, the figures for the Ki in assay [4], in [2] and in [3] were 0.28 nM, 3 nM and 16 nM, respectively.

Regarding `O=C1c2cc(F)ccc2S(=O)(=O)N1CCCCN1CCC(n2c(=O)oc3ccccc32)CC1`, the Selectivity in [13] stood at 266; in assay [14], 188. Besides, the values for the inhibition constant Ki in assay [2], in assay [3] and in [15] were 50 nM, 71 nM and 0.27 nM, respectively.

As to `COc1cc2nc(N3CCN(C(=O)C4CCCO4)CC3)nc(N)c2cc1OC` (stereo unspecified) [TERAZOSIN], the Kb stood at 17 µg/kg in the assay on Canis familiaris [11] and 16 µg/kg with Canis familiaris [12].

On to `Cc1ccc2c(c1)C(=O)N(CCCCN1CCC(n3c(=O)oc4ccccc43)CC1)S2(=O)=O`, for which the Ki in [2] is 20 nM; in [3], 73 nM; in assay [7], 0.099 nM.

For the molecule `COC(=O)c1ccc2c(c1)oc(=O)n2C1CCN(CCCCN2C(=O)c3ccccc3S2(=O)=O)CC1`, the Ki is 1030 nM in assay [4], 1960 nM in assay [2] and 3430 nM in assay [3].

For the molecule `Cc1cc(C)c2oc(=O)n(C3CCN(CCCCN4C(=O)c5ccccc5S4(=O)=O)CC3)c2c1`, the values for the Ki in [4], in assay [2] and in assay [3] were 20 nM, 108 nM and 224 nM, respectively. Moreover, the values for the Selectivity in assay [16] and in [17] were 5 and 11, respectively.

For the molecule `O=C1c2cc([N+](=O)[O-])ccc2S(=O)(=O)N1CCCCN1CCC(n2c(=O)oc3ccccc32)CC1`, the results for the Ki in [4], in assay [2] and in assay [3] were 0.13 nM, 133 nM and 351 nM, respectively.

Turning to `O=C1c2ccccc2S(=O)(=O)N1CCCCN1CCC(n2c(=O)oc3ccccc32)CC1`, the Ki in assay [4] came out at 0.12 nM; in assay [2], 14 nM; in assay [3] it was 41 nM.

As to `O=C1c2ccccc2C(=O)N1CCCCN1CCC(n2c(O)nc3ccccc32)CC1`, the Selectivity in assay [18] turned out to be 11; in assay [19], 56.

With `Cc1ccc2c(c1)oc(=O)n2C1CCN(CCCCN2C(=O)c3ccccc3S2(=O)=O)CC1`, the Selectivity turned out to be 208 in assay [20] and 97 in assay [21]. For the same molecule, the Ki in assay [4] is 3.1 nM; in [2] it was 301 nM; in assay [3], 644 nM.

Regarding `CSc1ccc2c(c1)C(=O)N(CCCCN1CCC(n3c(=O)oc4ccccc43)CC1)S2(=O)=O`, the Ki in assay [1] stood at 0.057 nM; in [2] it was 10 nM; in [3] it was 59 nM.

Consider `O=C1c2ccccc2S(=O)(=O)N1CCCCN1CCC(n2c(=O)oc3cc4c(cc32)CCCC4)CC1`, for which the inhibition constant Ki in [4] was found to be 90 nM; in [2] it was 676 nM; in [3], 894 nM.
